Where two headings read alike, the source gives them in different places.
How the values were obtained:
phosphorylated PDK1 = phosphorylated PDK1 (Homo sapiens (Human), UniProt O15530); assay: PDK1 kinase assay (coupled PDK1/AKT/FAM-crosstide, IMAP); assay type: biochemical; details: 0.5 nM phosphorylated PDK1, 24 μM ATP; read-out: Inhibition of phospo-PDK1 in vitro IC50
Phospho-T308 Akt = Phospho-T308 Akt detection using immunoblot (western blot) in PC-3 cells; assay type: cell-based; details: for Reduction of Cellular Levels of Akt p308 By Western: 2 hour incubation, concentration not given in Table 2; for inhibition at 5 µM: Homo sapiens, read-out: Percent Inhibition of phospho-Akt (308) By Western
Protocol: A Phospho-T308 Akt detection using immunoblot (western blot) analysis was performed as described below.
PC-3 prostate cells were plated in a 6 well plate in F12K media (Invitrogen, Carlsbad, Calif.) plus 10% FBS (Invitrogen) and placed in incubator overnight. The stock of compound A was a 50 mM solution in DMSO. 1000× dilutions of the compound were made in DMSO. The 1000× dilutions include, 35 mM, 25 mM, 15 mM, 10 mM, 7 mM, 5 mM, and 1 mM. 1 μl of the 1000× dilutions was added to 1 ml F12K media without serum for final concentrations of […]. 1 μl of DMSO was added to 1 ml media with no serum for a control. The 1 ml DMSO or compound plus media was then added to the cells. Following a 2 hour incubation at 37° C., cells were harvested and washed in PBS and subjected to centrifugation at 3,300 rpm for 5 minutes. Cells were lysed in 100 μl of Bio Rad Bioplex buffer containing protease inhibitors (BioRad, Hercules, Calif.) for 30 minutes on ice followed by centrifugation at 13,000 rpm for 5 minutes. The protein content of the supernatant was assayed using DC Protein Assay (BioRad). 25 μl of protein was added to 4× sample buffer (Invitrogen) and sample reducer (Invitrogen) and run on a 4-12% NuPage gel (Invitrogen). Proteins were then transferred to nitrocellulose (Invitrogen). The membrane was blocked in Tris-buffered saline (Sigma, St. Louis, Mo.) plus 0.1% Tween (Sigma) (T-TBS) plus 5% blotting grade milk (BioRad) for 60 minutes. Membranes were then incubated in T-TBS plus 5% BSA (Sigma) plus 1:1000 of anti-phospho akt (Thr 308) (Cell Signaling Technology, Beverly, Mass.) overnight at 4° C. Membranes were washed in T-TBS then incubated in 1:2000 of anti-rabbit-HRP (Cell Signaling) in TTBS plus 5% milk. Membranes were washed again and proteins were visualized with Super Signal West Pico (Pierce, Rockford, Ill.) and using Kodak BioMax MR film (Kodak, Rochester, N.Y.).
Phospho-akt 308 protein bands on the film were quantified using densitometry. An Alpha Imager (Alpha Innotech Corp, San Leandro, Calif.) using AlphaEase FC software version 4.1.0 (Alpha Innotech Corp.) was used to quantitate protein bands. Briefly, a rectangle of equal size was placed around each protein band as well as a background spot on the film. The densitometry values (IDV=Integrated Density Value) obtained for the background spot was then subtracted from the values obtained for the protein bands. These values were used to obtain an EC50 value using non-linear regression analysis in GraphPad Prism Version 4.00 (Graph Pad Prism, San Diego, Calif.). Percent decrease in expression of phosphoh-akt 308 were also measured specifically at 2 μM and 5 μM levels of inhibitor.

dephosphorylated PDK1 = dephosphorylated PDK1 (Homo sapiens (Human), UniProt O15530); assay: PDK1 kinase assay (coupled PDK1/AKT/FAM-crosstide, IMAP); assay type: biochemical; details: 25 nM un-phosphorylated PDK1, 24 μM ATP; read-out: Inhibition of dephospo-PDK1 in vitro IC50
Chain of dephosphorylated PDK1 (O15530 51-360): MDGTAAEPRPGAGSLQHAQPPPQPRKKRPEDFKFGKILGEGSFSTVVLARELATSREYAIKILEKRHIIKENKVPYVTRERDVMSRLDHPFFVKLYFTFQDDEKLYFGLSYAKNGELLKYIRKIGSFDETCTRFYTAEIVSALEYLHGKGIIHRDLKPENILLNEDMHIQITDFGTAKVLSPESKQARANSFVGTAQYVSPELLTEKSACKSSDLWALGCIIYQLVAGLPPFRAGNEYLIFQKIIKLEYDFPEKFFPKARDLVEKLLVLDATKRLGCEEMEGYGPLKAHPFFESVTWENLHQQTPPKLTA
Method in brief: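 Coupled cascade using 25 nM dephosphorylated PDK1 (aa 51–360, lambda-phosphatase treated, MS-verified), 30 nM unphosphorylated GST-AKT2 (aa 140–467)-PIFtide and 100 nM FAM-crosstide in Tris pH 7.2, 10 mM MgCl2, 1 mM DTT. ATP was 24 μM, with 30 min at 25 °C. Product was read by IMAP fluorescence polarization, and ΔmP against concentration was fitted with a 4-parameter model.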

phospho-akt (Thr308) = phospho-akt (Thr308) MSD ELISA in PC-3 cells; assay type: cell-based; details: Homo sapiens, PC-3 cells; for inhibition at 1 µM / inhibition at 10 µM: read-out: Percent Inhibition of phospho-Akt (308) By MSD ELISA; for EC50: PC-3, 2 h, 2 hours, no serum
Method in brief: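 PC-3 cells plated overnight in 10% FBS medium, then treated with three-fold serial compound dilutions in serum-free medium; DMSO-only wells as high control. Lysates captured on BSA-blocked MSD plates overnight at 4 degrees, detection antibody 1 hr RT, electrochemiluminescence read on MSD reader.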

[1] = read-out: Inhibition of P308 Akt in cells using MSD EC50

Chain of phosphorylated PDK1 (O15530 51-360): as above

CN(C)C(=O)C[C@@H](NC(=O)c1cccn(Cc2ccc(F)c(F)c2)c1=O)c1nnc(-c2c[nH]c3ncccc23)o1 [Cpd 290]
IC50 (phosphorylated PDK1): 500 to 10000 nM
Reduction of Cellular Levels of Akt p308 By Western (Phospho-T308 Akt): bb (inhibition of from 25% to 75%)
inhibition at 5 µM (Phospho-T308 Akt): 25 to 75%
IC50 (dephosphorylated PDK1): < 500 nM
inhibition at 1 µM (phospho-akt (Thr308)): < 25%
inhibition at 10 µM (phospho-akt (Thr308)): 25 to 75%

COC(=O)[C@@H](COc1ccc2[nH]c(=O)[nH]c2c1)NC(=O)c1cccn(Cc2ccc(F)c(F)c2)c1=O [Cpd 293]
IC50 (phosphorylated PDK1): < 500 nM
Reduction of Cellular Levels of Akt p308 By Western (Phospho-T308 Akt): bb (inhibition of from 25% to 75%)
inhibition at 5 µM (Phospho-T308 Akt): 25 to 75%
IC50 (dephosphorylated PDK1): < 500 nM
inhibition at 1 µM (phospho-akt (Thr308)): 25 to 75%
inhibition at 10 µM (phospho-akt (Thr308)): > 75%

CC(C)(C)OC(=O)NC[C@@H](NC(=O)c1cccn(Cc2ccc(F)c(F)c2)c1=O)c1nc(-c2c[nH]c3ncccc23)cs1 [Cpd 295]
IC50 (phosphorylated PDK1): < 500 nM
Reduction of Cellular Levels of Akt p308 By Western (Phospho-T308 Akt): bb (inhibition of from 25% to 75%)
inhibition at 5 µM (Phospho-T308 Akt): 25 to 75%
IC50 (dephosphorylated PDK1): < 500 nM
EC50 (phospho-akt (Thr308); [1]): 1 to 5 µM
inhibition at 1 µM (phospho-akt (Thr308)): < 25%
inhibition at 10 µM (phospho-akt (Thr308)): > 75%

NC[C@@H](NC(=O)c1cccn(Cc2ccc(F)c(F)c2)c1=O)c1nc(-c2c[nH]c3ncccc23)cs1 [Cpd 296]
IC50 (phosphorylated PDK1): < 500 nM
Reduction of Cellular Levels of Akt p308 By Western (Phospho-T308 Akt): bb (inhibition of from 25% to 75%)
inhibition at 5 µM (Phospho-T308 Akt): 25 to 75%
IC50 (dephosphorylated PDK1): < 500 nM
EC50 (phospho-akt (Thr308); [1]): 1 to 5 µM
inhibition at 1 µM (phospho-akt (Thr308)): < 25%
inhibition at 10 µM (phospho-akt (Thr308)): > 75%

O=C(C[C@@H](NC(=O)c1cccn(Cc2ccc(F)c(F)c2)c1=O)c1nnc(-c2c[nH]c3ncccc23)o1)NCCN1CCCC1 [Cpd 298]
IC50 (phosphorylated PDK1): < 500 nM
Reduction of Cellular Levels of Akt p308 By Western (Phospho-T308 Akt): b (inhibition of less 25%)
inhibition at 5 µM (Phospho-T308 Akt): < 25%
IC50 (dephosphorylated PDK1): < 500 nM
inhibition at 1 µM (phospho-akt (Thr308)): < 25%
inhibition at 10 µM (phospho-akt (Thr308)): < 25%

C[C@@H](c1ccc(Cl)cc1)n1cccc(C(=O)NCc2noc(-c3c[nH]c4ncccc34)n2)c1=O [Cpd 300]
IC50 (phosphorylated PDK1): < 500 nM
Reduction of Cellular Levels of Akt p308 By Western (Phospho-T308 Akt): bbb (inhibition of more than 75%)
inhibition at 5 µM (Phospho-T308 Akt): > 75%
IC50 (dephosphorylated PDK1): < 500 nM
EC50 (phospho-akt (Thr308); [1]): 1 to 5 µM
inhibition at 1 µM (phospho-akt (Thr308)): 25 to 75%
inhibition at 10 µM (phospho-akt (Thr308)): > 75%

C=CCOC(=O)C[C@@H](NC(=O)c1cccn(Cc2ccc(F)c(F)c2)c1=O)c1ncc(-c2c[nH]c3ncccc23)o1 [Cpd 301]
IC50 (phosphorylated PDK1): < 500 nM
Reduction of Cellular Levels of Akt p308 By Western (Phospho-T308 Akt): bbb (inhibition of more than 75%)
inhibition at 5 µM (Phospho-T308 Akt): > 75%
IC50 (dephosphorylated PDK1): < 500 nM
EC50 (phospho-akt (Thr308); [1]): 1 to 5 µM
EC50 (phospho-akt (Thr308); read-out: Reduction of Cellular Levels of Akt p308 By MSD ELISA (EC50 μM)): 1 to 5 µM
inhibition at 1 µM (phospho-akt (Thr308)): 25 to 75%
inhibition at 10 µM (phospho-akt (Thr308)): 25 to 75%

O=C(NCc1noc(-c2c[nH]c3ncccc23)n1)c1cccn(Cc2cccc(F)c2)c1=O [Cpd 302]
IC50 (phosphorylated PDK1): < 500 nM
Reduction of Cellular Levels of Akt p308 By Western (Phospho-T308 Akt): bbb (inhibition of more than 75%)
inhibition at 5 µM (Phospho-T308 Akt): > 75%
IC50 (dephosphorylated PDK1): < 500 nM
inhibition at 1 µM (phospho-akt (Thr308)): < 25%
inhibition at 10 µM (phospho-akt (Thr308)): 25 to 75%

O=C(NCc1noc(-c2c[nH]c3ncccc23)n1)c1cccn(Cc2ccc(F)cc2)c1=O [Cpd 303]
IC50 (phosphorylated PDK1): < 500 nM
Reduction of Cellular Levels of Akt p308 By Western (Phospho-T308 Akt): bbb (inhibition of more than 75%)
inhibition at 5 µM (Phospho-T308 Akt): > 75%
IC50 (dephosphorylated PDK1): < 500 nM
inhibition at 1 µM (phospho-akt (Thr308)): < 25%
inhibition at 10 µM (phospho-akt (Thr308)): < 25%

O=C(NCc1noc(-c2c[nH]c3ncccc23)n1)c1cccn(Cc2ccc(Cl)c(F)c2)c1=O [Cpd 304]
IC50 (phosphorylated PDK1): < 500 nM
Reduction of Cellular Levels of Akt p308 By Western (Phospho-T308 Akt): bbb (inhibition of more than 75%)
inhibition at 5 µM (Phospho-T308 Akt): > 75%
IC50 (dephosphorylated PDK1): < 500 nM
EC50 (phospho-akt (Thr308); [1]): 1 to 5 µM
inhibition at 1 µM (phospho-akt (Thr308)): < 25%
inhibition at 10 µM (phospho-akt (Thr308)): > 75%

O=C(NCc1noc(-c2c[nH]c3ncccc23)n1)c1cccn(Cc2ccc(Cl)cc2)c1=O [Cpd 305]
IC50 (phosphorylated PDK1): < 500 nM
Reduction of Cellular Levels of Akt p308 By Western (Phospho-T308 Akt): bbb (inhibition of more than 75%)
inhibition at 5 µM (Phospho-T308 Akt): > 75%
IC50 (dephosphorylated PDK1): < 500 nM
EC50 (phospho-akt (Thr308); [1]): 1 to 5 µM
inhibition at 1 µM (phospho-akt (Thr308)): < 25%
inhibition at 10 µM (phospho-akt (Thr308)): > 75%

NC(=O)C[C@@H](NC(=O)c1cccn(Cc2ccc(F)c(F)c2)c1=O)c1ncc(-c2c[nH]c3ncccc23)o1 [Cpd 306]
IC50 (phosphorylated PDK1): < 500 nM
Reduction of Cellular Levels of Akt p308 By Western (Phospho-T308 Akt): bbb (inhibition of more than 75%)
inhibition at 5 µM (Phospho-T308 Akt): > 75%
IC50 (dephosphorylated PDK1): < 500 nM
inhibition at 1 µM (phospho-akt (Thr308)): < 25%
inhibition at 10 µM (phospho-akt (Thr308)): 25 to 75%

O=C(O)CC[C@@H](NC(=O)c1cccn(Cc2ccc(F)c(F)c2)c1=O)c1nc(-c2c[nH]c3ncccc23)co1 [Cpd 307]
IC50 (phosphorylated PDK1): < 500 nM
Reduction of Cellular Levels of Akt p308 By Western (Phospho-T308 Akt): b (inhibition of less 25%)
inhibition at 5 µM (Phospho-T308 Akt): < 25%
IC50 (dephosphorylated PDK1): < 500 nM
inhibition at 1 µM (phospho-akt (Thr308)): < 25%
inhibition at 10 µM (phospho-akt (Thr308)): < 25%

O=C(NCc1noc(-c2c[nH]c3ncccc23)n1)c1cc(Cl)cn(Cc2ccc(Cl)cc2)c1=O [Cpd 309]
IC50 (phosphorylated PDK1): < 500 nM
Reduction of Cellular Levels of Akt p308 By Western (Phospho-T308 Akt): bb (inhibition of from 25% to 75%)
inhibition at 5 µM (Phospho-T308 Akt): 25 to 75%
IC50 (dephosphorylated PDK1): < 500 nM
EC50 (phospho-akt (Thr308); [1]): 1 to 5 µM
inhibition at 1 µM (phospho-akt (Thr308)): 25 to 75%
inhibition at 10 µM (phospho-akt (Thr308)): > 75%

O=C(NCc1noc(-c2c[nH]c3ncccc23)n1)c1cc(Cl)cn(Cc2cccc(F)c2)c1=O [Cpd 310]
IC50 (phosphorylated PDK1): < 500 nM
Reduction of Cellular Levels of Akt p308 By Western (Phospho-T308 Akt): bb (inhibition of from 25% to 75%)
inhibition at 5 µM (Phospho-T308 Akt): 25 to 75%
IC50 (dephosphorylated PDK1): < 500 nM
EC50 (phospho-akt (Thr308); [1]): 1 to 5 µM
inhibition at 1 µM (phospho-akt (Thr308)): 25 to 75%
inhibition at 10 µM (phospho-akt (Thr308)): 25 to 75%
